Source: patent US9540350B2, “1-substituted, 4-(substituted phenoxymethyl)-1,2,3-triazole compounds with antifungal properties and methods for preparation thereof” (FDC LIMITED, priority 2013, dated 2017)
Converted amounts (≈) assume the structure as drawn. Read-outs that look alike come from different tables or passages of the source.

How the values were obtained:
[1] = system: C. krusei ATCC 6258; test: Antifungal susceptibility, broth dilution MIC (CLSI M27-A2); type: cell-based, Candida krusei; conditions: Pichia kudriavzevii, read-out: Activity against organisms (MIC50) Ck01
Protocol: (§1) The compounds of Formula 1 were tested for antifungal activity against Candida albicans, C. glabrata, C. krusei, C. tropicalis, Cryptococcus neoformans, Aspergillus fumigatus, A. niger and Fusarium proliferatum. In vitro evaluation of antifungal activity was performed by determining the minimum inhibitory concentration (MIC) following standard methods (CLSI: Reference method for broth dilution antifungal susceptibility testing of yeasts; Approved standard, second edition M27-A2, 2002; CLSI: Reference method for broth dilution antifungal susceptibility testing of filamentous fungi; Approved standard M38-A, 2002). Anti-fungal susceptibility testing of these anti-fungal compounds was done by broth dilution method using RPMI 1640 medium with MOPS buffer. Known anti-fungal agent fluconazole was used as positive control. End points were determined after 48 hours visually and by using spectrophotometer wherever necessary. Different dilutions were tried and various sets of experiments performed. The activity parameters are enumerated in Table 4.

[2] = system: C. tropicalis ATCC 750; test: as above; type: cell-based, Candida tropicalis; conditions: Candida tropicalis, read-out: Activity against organisms (MIC50) Ct01
Protocol: as §1

[3] = system: C. albicans ATCC 24433; test: as above; type: cell-based; conditions: Candida albicans, read-out: Activity against organisms (MIC50) Ca01
Protocol: as §1

[4] = system: C. neoformans ATCC 34664; test: as above; type: cell-based, Cryptococcus neoformans; conditions: Cryptococcus neoformans, read-out: Activity against organisms (MIC50) Cn01
Protocol: as §1

[5] = system: A. niger ATCC 16404; test: Antifungal susceptibility, broth dilution MIC (CLSI M38-A); type: cell-based; conditions: Aspergillus niger, read-out: Activity against organisms (MIC50) An01
Protocol: as §1

[6] = system: A. fumigatus ATCC 46645; test: as above; type: cell-based; conditions: Aspergillus fumigatus, read-out: Activity against organisms (MIC50) Afm01
Protocol: as §1

[7] = system: F. proliferatum ATCC 10052; test: as above; type: cell-based; conditions: Fusarium proliferatum, read-out: Activity against organisms (MIC50) Fp01
Protocol: as §1

[8] = system: C. glabrata ATCC 90030; test: Antifungal susceptibility, broth dilution MIC (CLSI M27-A2); type: cell-based, Candida glabrata; conditions: Nakaseomyces glabratus, read-out: Activity against organisms (MIC50) Cg01
Protocol: as §1

[9] = ATCC6258, C. krusei ATCC 6258, broth dilution, RPMI 1640 with MOPS, 48 hours
[10] = ATCC750, C. tropicalis ATCC 750, broth dilution, RPMI 1640 with MOPS, 48 hours
[11] = ATCC24433, C. albicans ATCC 24433, broth dilution, RPMI 1640 with MOPS, 48 hours
[12] = ATCC34664, C. neoformans ATCC 34664, broth dilution, RPMI 1640 with MOPS, 48 hours
[13] = ATCC16404, A. niger ATCC 16404, broth dilution, RPMI 1640 with MOPS, 48 hours
[14] = ATCC46645, A. fumigatus ATCC 46645, broth dilution, RPMI 1640 with MOPS, 48 hours
[15] = ATCC10052, F. proliferatum ATCC 10052, broth dilution, RPMI 1640 with MOPS, 48 hours
[16] = ATCC90030, C. glabrata ATCC 90030, broth dilution, RPMI 1640 with MOPS, 48 hours

SMILES | MIC50 [1, 9] | MIC50 [2, 10] | MIC50 [3, 11] | MIC50 [4, 12] | MIC50 [5, 13] | MIC50 [6, 14] | MIC50 [7, 15] | MIC50 [8, 16] | MIC50 ([1]; ATCC6258, 48 h) | MIC50 ([2]; ATCC750, 48 h) | MIC50 ([3]; ATCC24433, 48 h) | MIC50 ([4]; ATCC34664, 48 h) | MIC50 ([5]; ATCC16404, 48 h) | MIC50 ([6]; ATCC46645, 48 h) | MIC50 ([7]; ATCC10052, 48 h) | MIC50 ([8]; ATCC90030, 48 h)
CC/C=C/c1ccc(OCc2cn(CC(O)(Cn3cncn3)c3ccc(F)cc3F)nn2)cc1 (stereo not drawn) [Compound 1C-1, (E)-1-(4-((4-(But-1-en-1-yl)phenoxy)methyl)-1H-1,2,3-triazol-1-yl)-2-(2,4-difluorophenyl)-3-(1H-1,2,4-triazol-1-yl)propan-2-ol] | 2 µg/mL (≈ 4.29 µM) | 0.25 µg/mL (≈ 0.536 µM) | 0.03 µg/mL (≈ 0.0643 µM) | 0.12 µg/mL (≈ 0.257 µM) | 8 µg/mL (≈ 17.1 µM) | 8 µg/mL (≈ 17.1 µM) | > 16 µg/mL | 0.015 µg/mL (≈ 0.0322 µM) |  |  |  |  |  |  |  | 
O=C(/C=C/c1ccccc1)c1ccc(OCc2cn(CC(O)(Cn3cncn3)c3ccc(F)cc3F)nn2)cc1 (stereo not drawn) [Compound 1A-1, (E)-1-(4-((1-(2-(2,4-Difluorophenyl)-2-hydroxy-3-(1H-1,2,4-triazol-1-yl)propyl)-1H-1,2,3-triazol-4-yl)methoxy)phenyl)-3-phenylprop-2-en-1-one] | 4 µg/mL (≈ 7.37 µM) | 1 µg/mL (≈ 1.84 µM) | 0.12 µg/mL (≈ 0.221 µM) | 0.5 µg/mL (≈ 0.922 µM) | > 8 µg/mL | > 8 µg/mL | > 8 µg/mL | 0.12 µg/mL (≈ 0.221 µM) |  |  |  |  |  |  |  | 
C#CCOc1ccc(/C=C/C(=O)c2ccc(N3CCN(Cc4ccc(OC)cc4)CC3)cc2)cc1 [Compound 6A-4] | > 8 µg/mL | > 8 µg/mL | > 8 µg/mL | > 8 µg/mL | > 8 µg/mL | > 8 µg/mL | > 8 µg/mL | > 8 µg/mL |  |  |  |  |  |  |  | 
O=C(/C=C/c1ccc(Cl)cc1)c1ccc(O)cc1 [Compound 9A-4] |  |  |  |  |  |  |  |  | > 8 µg/mL | > 8 µg/mL | > 8 µg/mL | > 8 µg/mL | > 8 µg/mL | > 8 µg/mL | > 8 µg/mL | 32 µg/mL (≈ 124 µM)
CCCCCCCCCC/C=C/c1ccc(OCc2cn(CC(O)(Cn3cncn3)c3ccc(F)cc3F)nn2)cc1 (stereo not drawn) [Compound 1C-3, (E)-2-(2,4-Difluorophenyl)-1-(4-((4-(n-dodec-1-en-1-yl)phenoxy)methyl)-1H-1,2,3-triazol-1-yl)-3-(1H-1,2,4-triazol-1-yl)propan-2-ol] | > 2 µg/mL | > 2 µg/mL | 1 µg/mL (≈ 1.73 µM) | 0.5 µg/mL (≈ 0.864 µM) | > 2 µg/mL | > 2 µg/mL | > 2 µg/mL | 0.12 µg/mL (≈ 0.207 µM) |  |  |  |  |  |  |  | 
O=C(/C=C/c1ccc(OCc2cn(CC(O)(Cn3cncn3)c3ccc(F)cc3F)nn2)cc1)c1ccc(OCC(O)(Cn2cncn2)c2ccc(F)cc2F)cc1 (stereo not drawn) [Compound 1B-10, (E)-1-(4-(2-(2,4-Difluorophenyl)-2-hydroxy-3-(m-1,2,4-triazol-1-yl)propoxy)phenyl)-3-(4-((1-(2-(2,4-difluorophenyl)-2-hydroxy-3-(1H-1,2,4-triazol-1-yl)propyl)-1H-1,2,3-triazol-4-yl)methoxy)phenyl)prop-2-en-1-one] | 2 µg/mL (≈ 2.51 µM) | 1 µg/mL (≈ 1.26 µM) | 0.25 µg/mL (≈ 0.314 µM) | 1 µg/mL (≈ 1.26 µM) | > 2 µg/mL | > 2 µg/mL | > 2 µg/mL | 0.5 µg/mL (≈ 0.628 µM) |  |  |  |  |  |  |  | 
Cc1cc(C#N)c(N)c(C#N)c1-c1ccc(OCc2cn(CC(O)(Cn3cncn3)c3ccc(F)cc3F)nn2)cc1 (stereo not drawn) [Compound 1D-6, 3-Amino-4′-((1-(2-(2,4-difluorophenyl)-2-hydroxy-3-(1H-1,2,4-triazol-1-yl)propyl)-1H-1,2,3-triazol-4-yl)methoxy)-6-methylbiphenyl-2,4-dicarbonitrile] | > 8 µg/mL | 2 µg/mL (≈ 3.52 µM) | 0.5 µg/mL (≈ 0.881 µM) | 1 µg/mL (≈ 1.76 µM) | > 8 µg/mL | > 8 µg/mL | > 8 µg/mL | 0.5 µg/mL (≈ 0.881 µM) |  |  |  |  |  |  |  | 
CCCCN1CCN(c2ccc(C(=O)/C=C/c3ccc(OCc4cn(CC(O)(Cn5cncn5)c5ccc(F)cc5F)nn4)cc3)cc2)CC1 (stereo not drawn) [Compound 1B-6, (E)-1-(4-(4-n-Butylpiperazin-1-yl)phenyl)-3-(4-((1-(2-(2,4-difluorophehyl)-2-hydroxy-3-(1H-1,2,4-triazol-1-yl)propyl)-1H-1,2,3-triazol-4-yl)methoxy)phenyl)prop-2-en-1-one] | > 4 µg/mL | 0.5 µg/mL (≈ 0.732 µM) | 0.12 µg/mL (≈ 0.176 µM) | 1 µg/mL (≈ 1.46 µM) | > 4 µg/mL | > 4 µg/mL | > 4 µg/mL | 0.5 µg/mL (≈ 0.732 µM) |  |  |  |  |  |  |  | 
O=C(/C=C/c1ccc(OCc2cn(CC(O)(Cn3cncn3)c3ccc(F)cc3F)nn2)cc1)c1ccc(F)cc1 (stereo not drawn) [Compound 1B-2, (E)-3-(4-((1-(2-(2,4-Difluorophenyl)-2-hydroxy-3-(1H-1,2,4-triazol-1-yl)propyl)-1H-1,2,3-triazol-4-yl)methoxy)phenyl)-1-(4-fluorophenyl)prop-2-en-1-one] | 4 µg/mL (≈ 7.14 µM) | 2 µg/mL (≈ 3.57 µM) | 0.06 µg/mL (≈ 0.107 µM) | 0.25 µg/mL (≈ 0.446 µM) | > 4 µg/mL | > 4 µg/mL | > 4 µg/mL | 0.5 µg/mL (≈ 0.892 µM) |  |  |  |  |  |  |  | 
C=C=CCOc1ccc(/C=C/C(=O)/C=C/c2ccc(OCc3cn(CC(O)(Cn4cncn4)c4ccc(F)cc4F)nn3)cc2)cc1 (stereo not drawn) [Compound 1B-9, (1E,4E)-1-(4-(Buta-2,3-dienyloxy)phenyl)-5-(4-((1-(2-(2,4-difluorophenyl)-2-hydroxy-3-(1H-1,2,4-triazol-1-yl)propyl)-1H-1,2,3-triazol-4-yl)methoxy)phenyl)penta-1,4-dien-3-one] | 2 µg/mL (≈ 3.14 µM) | 1 µg/mL (≈ 1.57 µM) | 0.25 µg/mL (≈ 0.393 µM) | 0.25 µg/mL (≈ 0.393 µM) | > 2 µg/mL | > 2 µg/mL | > 2 µg/mL | 0.5 µg/mL (≈ 0.785 µM) |  |  |  |  |  |  |  | 
COc1ccc(C(=O)/C=C/c2ccc(OCc3cn(CC(O)(Cn4cncn4)c4ccc(F)cc4F)nn3)cc2)cc1 (stereo not drawn) [Compound 1B-1] | 4 µg/mL (≈ 6.99 µM) | 1 µg/mL (≈ 1.75 µM) | 0.12 µg/mL (≈ 0.21 µM) | 1 µg/mL (≈ 1.75 µM) | > 4 µg/mL | > 4 µg/mL | > 4 µg/mL | 0.5 µg/mL (≈ 0.873 µM) |  |  |  |  |  |  |  | 
C/C=C/c1ccc(OCc2cn(CC(O)(Cn3cncn3)c3ccc(F)cc3F)nn2)cc1 (stereo not drawn) [Compound 1C-4, (E)-2-(2,4-Difluorophenyl)-1-(4-((4-(prop-1-en-1-yl)phenoxy)methyl)-1H-1,2,3-triazol-1-yl)-3-(1H-1,2,4-triazol-1-yl)propan-2-ol] | 8 µg/mL (≈ 17.7 µM) | 0.12 µg/mL (≈ 0.265 µM) | 0.03 µg/mL (≈ 0.0663 µM) | 0.5 µg/mL (≈ 1.11 µM) | 64 µg/mL (≈ 141 µM) | 32 µg/mL (≈ 70.7 µM) | > 32 µg/mL | 0.06 µg/mL (≈ 0.133 µM) |  |  |  |  |  |  |  | 
